Assay results: publication PMC10638548 (Acta Pharmaceutica Sinica. B, 2023)

Columns and labels:
[1] = 20 μmol/L NMV, 0.1 mg HLM, 1 mmol/L NADPH, 37 °C, 1 h
CYP3A4 = CYP3A4 (Homo sapiens, UniProt P08684); settings: 20 μmol/L NMV, 10 pmol CYP, 1 mmol/L NADPH, 37 °C, 1 h
CYP3A5 = CYP3A5 (Homo sapiens, UniProt P20815); settings: 20 μmol/L NMV, 10 pmol CYP, 1 mmol/L NADPH, 37 °C, 1 h
CYP1A2 = molecular target: T1, CYP1A2 (Homo sapiens, UniProt P05177); settings: 20 μmol/L NMV, 10 pmol CYP, 1 mmol/L NADPH, 37 °C, 1 h
T1 sequence (P05177 1-516): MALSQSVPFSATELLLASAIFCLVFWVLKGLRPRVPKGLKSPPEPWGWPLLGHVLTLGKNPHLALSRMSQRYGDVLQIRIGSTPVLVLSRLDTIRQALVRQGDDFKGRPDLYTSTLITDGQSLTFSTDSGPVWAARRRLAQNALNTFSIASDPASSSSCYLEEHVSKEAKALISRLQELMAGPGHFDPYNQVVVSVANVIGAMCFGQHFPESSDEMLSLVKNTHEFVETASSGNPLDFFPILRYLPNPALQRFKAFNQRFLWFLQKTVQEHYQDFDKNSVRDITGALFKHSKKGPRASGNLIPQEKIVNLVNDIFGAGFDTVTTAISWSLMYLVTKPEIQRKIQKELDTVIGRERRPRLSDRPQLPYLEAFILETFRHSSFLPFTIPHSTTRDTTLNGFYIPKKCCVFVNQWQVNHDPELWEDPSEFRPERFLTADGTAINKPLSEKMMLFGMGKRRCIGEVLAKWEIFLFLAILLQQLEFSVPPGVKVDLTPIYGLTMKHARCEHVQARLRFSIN

CYP2A6 = molecular target: T2, CYP2A6 (Homo sapiens, UniProt P11509); settings: 20 μmol/L NMV, 10 pmol CYP, 1 mmol/L NADPH, 37 °C, 1 h
T2 sequence (P11509 1-494): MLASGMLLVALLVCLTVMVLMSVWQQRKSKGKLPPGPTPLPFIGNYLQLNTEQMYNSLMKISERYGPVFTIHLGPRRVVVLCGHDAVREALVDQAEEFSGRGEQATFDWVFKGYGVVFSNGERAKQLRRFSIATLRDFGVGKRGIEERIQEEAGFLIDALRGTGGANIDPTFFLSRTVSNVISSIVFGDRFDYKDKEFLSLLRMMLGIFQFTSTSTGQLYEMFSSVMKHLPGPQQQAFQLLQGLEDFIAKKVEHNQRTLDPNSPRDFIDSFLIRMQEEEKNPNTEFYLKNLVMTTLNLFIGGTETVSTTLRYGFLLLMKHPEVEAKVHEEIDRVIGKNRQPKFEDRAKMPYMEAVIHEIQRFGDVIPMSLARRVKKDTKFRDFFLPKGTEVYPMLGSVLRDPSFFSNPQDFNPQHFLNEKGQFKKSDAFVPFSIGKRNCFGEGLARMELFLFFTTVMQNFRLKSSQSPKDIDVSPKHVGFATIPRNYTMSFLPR

CYP2B6 = molecular target: T3, CYP2B6 (Homo sapiens, UniProt P20813); settings: 20 μmol/L NMV, 10 pmol CYP, 1 mmol/L NADPH, 37 °C, 1 h
T3 sequence (P20813 1-491): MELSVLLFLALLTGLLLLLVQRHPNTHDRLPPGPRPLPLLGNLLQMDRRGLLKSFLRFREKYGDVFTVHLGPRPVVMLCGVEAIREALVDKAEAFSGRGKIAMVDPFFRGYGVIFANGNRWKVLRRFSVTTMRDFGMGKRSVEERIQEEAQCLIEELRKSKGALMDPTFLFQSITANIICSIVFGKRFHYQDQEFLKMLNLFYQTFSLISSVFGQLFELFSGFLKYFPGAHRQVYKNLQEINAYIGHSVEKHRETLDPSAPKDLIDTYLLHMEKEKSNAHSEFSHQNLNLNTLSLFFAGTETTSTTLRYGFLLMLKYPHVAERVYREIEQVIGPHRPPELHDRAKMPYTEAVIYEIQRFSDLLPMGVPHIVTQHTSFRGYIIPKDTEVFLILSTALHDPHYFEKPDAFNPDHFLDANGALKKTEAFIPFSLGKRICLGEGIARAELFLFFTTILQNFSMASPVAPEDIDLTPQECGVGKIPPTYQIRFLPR

CYP2C9 = CYP2C9 (Homo sapiens, UniProt P11712); settings: 20 μmol/L NMV, 10 pmol CYP, 1 mmol/L NADPH, 37 °C, 1 h
Chain of CYP2C9 (P11712 whole entry): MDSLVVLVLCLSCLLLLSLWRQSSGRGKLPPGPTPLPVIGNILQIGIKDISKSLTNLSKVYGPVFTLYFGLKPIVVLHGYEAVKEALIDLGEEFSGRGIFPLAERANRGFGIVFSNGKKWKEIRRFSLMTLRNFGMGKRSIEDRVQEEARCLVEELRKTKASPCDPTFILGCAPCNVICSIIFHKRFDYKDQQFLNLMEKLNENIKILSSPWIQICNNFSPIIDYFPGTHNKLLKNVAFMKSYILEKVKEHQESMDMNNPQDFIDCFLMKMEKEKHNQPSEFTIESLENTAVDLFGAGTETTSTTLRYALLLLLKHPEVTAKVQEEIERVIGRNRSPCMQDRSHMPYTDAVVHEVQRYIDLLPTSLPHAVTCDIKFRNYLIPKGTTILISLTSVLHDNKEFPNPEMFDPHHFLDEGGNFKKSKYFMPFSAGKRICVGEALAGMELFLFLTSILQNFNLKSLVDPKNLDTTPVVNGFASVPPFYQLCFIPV

CYP2C19 = CYP2C19 (Homo sapiens, UniProt P33261); settings: 20 μmol/L NMV, 10 pmol CYP, 1 mmol/L NADPH, 37 °C, 1 h
Chain of CYP2C19 (P33261 whole entry): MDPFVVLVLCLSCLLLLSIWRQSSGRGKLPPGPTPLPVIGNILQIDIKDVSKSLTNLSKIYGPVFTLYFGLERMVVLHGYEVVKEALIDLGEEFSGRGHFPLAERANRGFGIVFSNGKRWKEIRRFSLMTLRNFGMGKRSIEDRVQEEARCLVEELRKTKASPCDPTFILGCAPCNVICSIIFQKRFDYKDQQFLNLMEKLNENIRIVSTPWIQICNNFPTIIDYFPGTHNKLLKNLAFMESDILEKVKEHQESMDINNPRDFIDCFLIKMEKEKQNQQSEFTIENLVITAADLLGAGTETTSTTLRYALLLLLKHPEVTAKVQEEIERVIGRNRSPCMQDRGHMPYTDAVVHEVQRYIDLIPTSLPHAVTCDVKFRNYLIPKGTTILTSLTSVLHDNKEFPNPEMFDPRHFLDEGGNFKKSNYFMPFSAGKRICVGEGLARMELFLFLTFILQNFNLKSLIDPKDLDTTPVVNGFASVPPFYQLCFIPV

CYP2D6 = CYP2D6 (Homo sapiens, UniProt P10635); settings: 20 μmol/L NMV, 10 pmol CYP, 1 mmol/L NADPH, 37 °C, 1 h
Chain of CYP2D6 (P10635 whole entry): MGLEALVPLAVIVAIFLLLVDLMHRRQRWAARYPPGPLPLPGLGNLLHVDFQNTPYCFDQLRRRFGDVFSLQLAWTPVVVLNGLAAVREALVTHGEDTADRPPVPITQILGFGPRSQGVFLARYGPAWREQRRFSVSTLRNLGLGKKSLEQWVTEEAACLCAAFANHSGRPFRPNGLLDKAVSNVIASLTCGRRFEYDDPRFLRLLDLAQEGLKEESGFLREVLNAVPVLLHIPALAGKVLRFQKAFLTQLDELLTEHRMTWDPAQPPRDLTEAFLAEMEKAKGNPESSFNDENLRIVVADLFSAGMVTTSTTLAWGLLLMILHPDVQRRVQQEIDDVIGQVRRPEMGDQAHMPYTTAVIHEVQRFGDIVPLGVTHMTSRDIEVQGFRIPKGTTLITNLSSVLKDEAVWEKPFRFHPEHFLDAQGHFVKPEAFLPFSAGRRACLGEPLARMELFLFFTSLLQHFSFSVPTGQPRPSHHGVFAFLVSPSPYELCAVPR

CYP2E1 = CYP2E1 (Homo sapiens, UniProt P05181); settings: 20 μmol/L NMV, 10 pmol CYP, 1 mmol/L NADPH, 37 °C, 1 h
Chain of CYP2E1 (P05181 whole entry): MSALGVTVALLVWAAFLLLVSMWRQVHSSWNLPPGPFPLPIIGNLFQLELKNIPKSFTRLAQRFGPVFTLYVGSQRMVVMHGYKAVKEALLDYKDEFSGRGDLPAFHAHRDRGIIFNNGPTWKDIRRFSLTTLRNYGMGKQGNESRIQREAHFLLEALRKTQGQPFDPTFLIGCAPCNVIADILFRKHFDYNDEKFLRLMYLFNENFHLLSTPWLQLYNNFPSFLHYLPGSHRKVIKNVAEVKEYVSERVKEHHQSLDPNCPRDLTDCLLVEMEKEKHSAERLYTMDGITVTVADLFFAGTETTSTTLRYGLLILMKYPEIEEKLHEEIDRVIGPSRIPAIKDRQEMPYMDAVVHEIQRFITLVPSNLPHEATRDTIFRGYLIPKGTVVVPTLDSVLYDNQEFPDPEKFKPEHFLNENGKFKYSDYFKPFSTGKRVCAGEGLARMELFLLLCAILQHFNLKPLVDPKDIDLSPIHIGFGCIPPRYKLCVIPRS

[2] = hPXR/CYP3A mice pretreated with RCP (60 mg/kg, po, bid, 4 days), then oral RTV 20 mg/kg + NMV 60 mg/kg
[3] = cited from earlier work
CYP3A4 mRNA = settings: hPXR/CYP3A mice; RIF 50 mg/kg in diet 7 days; RCP 60 mg/kg po bid 4 days
CYP3A protein = settings: RCP 60 mg/kg po bid 4 days
[4] = clinical studies, co-administration of carbamazepine (CYP3A inducer) ref 16

Chain of CYP3A4 (P08684 whole entry): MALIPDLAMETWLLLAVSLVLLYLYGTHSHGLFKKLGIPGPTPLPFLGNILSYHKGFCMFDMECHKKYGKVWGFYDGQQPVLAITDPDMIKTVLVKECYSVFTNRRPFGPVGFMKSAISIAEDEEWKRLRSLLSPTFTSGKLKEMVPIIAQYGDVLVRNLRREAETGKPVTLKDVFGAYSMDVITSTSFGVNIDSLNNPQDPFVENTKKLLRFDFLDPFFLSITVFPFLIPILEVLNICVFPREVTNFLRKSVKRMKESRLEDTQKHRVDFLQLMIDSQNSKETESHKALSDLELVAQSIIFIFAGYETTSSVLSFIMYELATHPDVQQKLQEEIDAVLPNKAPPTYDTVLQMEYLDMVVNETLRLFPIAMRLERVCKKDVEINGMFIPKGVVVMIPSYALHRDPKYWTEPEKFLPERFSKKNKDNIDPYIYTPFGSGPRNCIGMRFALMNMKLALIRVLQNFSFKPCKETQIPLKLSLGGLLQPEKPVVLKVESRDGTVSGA
Chain of CYP3A5 (P20815 whole entry): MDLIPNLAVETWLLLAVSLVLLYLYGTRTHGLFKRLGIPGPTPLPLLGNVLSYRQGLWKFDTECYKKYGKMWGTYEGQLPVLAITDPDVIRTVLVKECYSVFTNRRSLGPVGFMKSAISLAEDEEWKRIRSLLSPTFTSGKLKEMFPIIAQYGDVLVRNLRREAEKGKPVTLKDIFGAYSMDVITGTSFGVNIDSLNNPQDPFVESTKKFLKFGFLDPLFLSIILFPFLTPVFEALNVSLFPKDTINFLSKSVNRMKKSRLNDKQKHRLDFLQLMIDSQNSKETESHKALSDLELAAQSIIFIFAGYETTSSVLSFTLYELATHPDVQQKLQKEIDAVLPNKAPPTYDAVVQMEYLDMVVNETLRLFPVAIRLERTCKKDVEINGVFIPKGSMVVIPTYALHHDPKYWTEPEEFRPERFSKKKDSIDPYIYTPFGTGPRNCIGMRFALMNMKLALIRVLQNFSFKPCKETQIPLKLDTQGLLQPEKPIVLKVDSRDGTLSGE

SMILES | number of NMV metabolites identified in the incubation with HLM [1] | contribution of CYP3A4 to NMV metabolism (formation of M1–M7) (CYP3A4) | contribution of CYP3A5 to NMV metabolism (formation of M1–M7) (CYP3A5) | contribution of CYP1A2 to NMV metabolism (CYP1A2) | contribution of CYP2A6 to NMV metabolism (CYP2A6) | contribution of CYP2B6 to NMV metabolism (CYP2B6) | contribution of CYP2C9 to NMV metabolism (CYP2C9) | contribution of CYP2C19 to NMV metabolism (CYP2C19) | contribution of CYP2D6 to NMV metabolism (CYP2D6) | contribution of CYP2E1 to NMV metabolism (CYP2E1) | change of AUC in serum vs control group (in words) [2] | change of Cmax in serum vs control group (in words) [2] | decrease in AUC of NMV [3, 4] [%] | decrease in Cmax of NMV [3, 4] [%] | reduction for NMV exposure ([3]; healthy subjects, CYP3A4 inducer carbamazepine, Paxlovid fact sheet ref 16) [%] | change of NMV (systemic) exposure (in words) ([3]; healthy subjects, CYP3A4 inhibitor itraconazole, Paxlovid fact sheet ref 16) | mRNA expression of CYP3A4 in the liver vs control (CYP3A4 mRNA) | increase of protein level of CYP3A in the liver vs control (CYP3A protein; Pxr-null/CYP3A mice) | protein level of CYP3A in the liver vs control (CYP3A protein; hPXR/CYP3A mice, RIF 50 mg/kg in diet 7 days)
CC(C)(C)[C@H](NC(=O)C(F)(F)F)C(=O)N1C[C@H]2[C@@H]([C@H]1C(=O)N[C@H](C#N)C[C@@H]1CCNC1=O)C2(C)C [NMV, nirmatrelvir] | 7 | contributed the most to all the 7 metabolic pathways of NMV | also involved in the 7 metabolic pathways of NMV, especially for the production of M4 and M5 | did not contribute to NMV metabolism | did not contribute to NMV metabolism | did not contribute to NMV metabolism | did not contribute to NMV metabolism | did not contribute to NMV metabolism | did not contribute to NMV metabolism | did not contribute to NMV metabolism | significantly decreased | significantly decreased | ~50 | ~50 | ~50 | increased the systemic exposure of NMV | – | – | –
CC[C@H]1CN2CC[C@]3(C(=O)Nc4ccccc43)[C@@H]2C[C@@H]1/C(=C\OC)C(=O)OC [RCP, rhynchophylline] | – | – | – | – | – | – | – | – | – | – | – | – | – | – | – | – | significantly upregulated | but not in Pxr-null/CYP3A mice | increased the protein level of CYP3A
CC(C)c1nc(CN(C)C(=O)N[C@H](C(=O)N[C@@H](Cc2ccccc2)C[C@H](O)[C@H](Cc2ccccc2)NC(=O)OCc2cncs2)C(C)C)cs1 [RTV, ritonavir] | – | – | – | – | – | – | – | – | – | – | also decreased | also decreased | – | – | – | – | – | – | –
